According to PMC12691611, “Aromatic residue Trp146 mediates dynamic interplay between type IVa pili and exopolysaccharide in social motility of Myxococcus xanthus” (mBio, 2025):
“Also recorded” adds a separate entry of the source.

Key:
[1] = Zeta potential measurement; assay type: physicochemical
Procedure: GlcN and PilACt were diluted in PBS buffer, and the solutions were adjusted to a suitable pH (6, 7.6, and 9) using either HCl or NaOH. The zeta (ζ) potential of GlcN (0.5 mg/mL) and PilACt (1 mg/mL) solutions was measured using UV-grade cuvettes with a Zetasizer NanoZS90 (Malvern Instruments, United Kingdom). For each measurement, 1 mL of the sample was injected into a folded capillary cell. All experiments were conducted in triplicate.

[2] = target: T1, PilACt (truncated PilA, residues 32–208) (Myxococcus xanthus, UniProt Q59589); assay: Surface plasmon resonance (SPR, Biacore T200), carbohydrates over immobilized PilACt; assay type: binding; conditions: for Kd: KD (SPR, PilACt)
T1 construct: a truncated variant (PilACt) spanning residues 32–208; His tag; made in house; host or cells: E. coli BL21 (DE3)
Source text: We therefore employed surface plasmon resonance (SPR) on a Biacore system to quantitatively evaluate EPS-PilA binding ([48]), using immobilized PilACt as the ligand. […] Due to the insoluble nature of I-EPS and the risk of clogging the microfluidic channels, it was excluded from further SPR analyses.
(§1) ITC power compensation analyses ([50]) confirmed negligible enthalpy changes during titrations, ruling out nonspecific binding events (Fig. S3B and S4B). […] Given the presence of ManNAc in M. xanthus EPS, we further analyzed its deacetylated derivative, mannosamine (ManN).
The binding affinity of carbohydrates to PilACt and its mutants was determined by SPR measurements at 25°C using Biacore T200 (Cytiva, USA) in PBS buffer. The purified PilACt or its mutants (10 µg/mL in 10 mM sodium acetate, pH 4.5) were immobilized on the CM5 chips (Cytiva, USA) via amine coupling. Unreacted sites were blocked with 1.0 M ethanolamine-HCl (pH 8.5). Flow path 1 or path 3 was used as an activated blank control for subtraction. In all interaction experiments, analytes were injected at a flow rate of 30 µL/min for 180 s, with gradient concentrations programmed from low to high. After injection, dissociation was allowed to occur with the buffer flow for 300 s to facilitate chip regeneration. The resulting curves were corrected and fitted to the steady-state model using Biacore evaluation software (version 3.0, Cytiva, USA) to determine the dissociation constant (KD) values.

[3] = target: T2, PilACt-Y69A (Myxococcus xanthus, UniProt Q59589, Y69A); assay: SPR, carbohydrates over immobilized PilACt-Y69A; assay type: binding
T2 construct: a truncated variant (PilACt) spanning residues 32–208; His tag; made in house; host or cells: E. coli BL21 (DE3)
Source text: (§2) To functionally validate the role of W146, a W146A substitution mutant (PilA-W146A) was generated through AlphaFold2-based structural modeling of PilA (Fig. 4A). Structural alignment confirmed the mutant retained a tertiary structure indistinguishable from wild-type PilA (WT PilA; Fig. 4B), indicating the W146A substitution caused no global structural perturbations. […] However, the mutation induced localized instability, manifested by premature GlcN dissociation (4 ns) and excessive ligand RMSD fluctuations (>6 nm; Fig. 4C and D; Movie S4). […] To quantify binding effects, a single-residue PilACt variant (PilACt-W146A) was analyzed for EPS/GlcN affinity. […] To assess broader aromatic residue contributions, four additional PilA aromatic residues (Y69, W181, F164, and F186) were individually substituted with alanine. The PilACt-F164A mutant underwent intracellular degradation, likely due to structural instability, precluding heterologous expression.
(§3) The binding affinity of carbohydrates to PilACt and its mutants was determined by SPR measurements at 25°C using Biacore T200 (Cytiva, USA) in PBS buffer. […]
(§4) Fig S11. […] The binding affinity of single-residue variants PilACt-Y69A, PilACt-W181A, and PilACt-F186A to S-EPS (A) and GlcN (B) was evaluated by SPR analysis. Representative sensorgram and calculated KD values are shown. […]

[4] = test system: M. xanthus DK1622 cells; parameters: method as in PMID 12704238; conditions: DK1622 cells ref 15; cited from earlier work
[5] = target: T3, PilACt-F186A (Myxococcus xanthus, UniProt Q59589, F186A); assay: SPR, carbohydrates over immobilized PilACt-F186A; assay type: binding
T3 construct: a truncated variant (PilACt) spanning residues 32–208; His tag; made in house; host or cells: E. coli (BL21 (DE3) is named only for the other PilACt variants)
Source text: as §2, §3, §4

[6] = amine group of GlcN; no reference given; cited from earlier work
[7] = target: T4, PilACt-W181A (Myxococcus xanthus, UniProt Q59589, W181A); assay: SPR, carbohydrates over immobilized PilACt-W181A; assay type: binding
T4 construct: a truncated variant (PilACt) spanning residues 32–208; His tag; made in house; host or cells: E. coli BL21 (DE3)
Source text: as §2, §3, §4

[8] = target: T5, PilACt-W146A (Myxococcus xanthus, UniProt Q59589, W146A); assay: SPR, carbohydrates over immobilized PilACt-W146A; assay type: binding; conditions: 25°C, PBS
T5 construct: a truncated variant (PilACt) spanning residues 32–208; His tag; made in house; host or cells: E. coli BL21 (DE3)
Source text: as §2
The binding affinity of carbohydrates to PilACt and its mutants was determined by SPR measurements at 25°C using Biacore T200 (Cytiva, USA) in PBS buffer. The purified PilACt or its mutants (10 µg/mL in 10 mM sodium acetate, pH 4.5) were immobilized on the CM5 chips (Cytiva, USA) via amine coupling. Unreacted sites were blocked with 1.0 M ethanolamine-HCl (pH 8.5). Flow path 1 or path 3 was used as an activated blank control for subtraction. […]

[9] = target: T6, PilACt (Myxococcus xanthus, UniProt Q59589); assay: Isothermal titration calorimetry (ITC), carbohydrates titrated into PilACt; assay type: binding
T6 construct: a truncated variant (PilACt) spanning residues 32–208; His tag; made in house; host or cells: E. coli BL21 (DE3)
Procedure: as §1
The calorimetric data for the binding of PilACt and its mutants to carbohydrates were measured at 25°C using a MicroCal PEAQ-ITC system (Malvern Instruments, United Kingdom). The carbohydrates, PilACt, and its mutants were dissolved in the PBS buffer. A 300 µL aliquot of protein solution was placed in the sample cell, followed by 19 sequential 2 µL injections of carbohydrates from a syringe stock solution into the sample cell. The injection interval was 150 s, and the agitation speed was set at 750 rpm. A control titration, in which carbohydrates were injected into PBS buffer under the same conditions, was performed to measure the heat of mixing and dilutions, which was then subtracted from the titration results involving the protein. Raw data were imported into MicroCal PEAQ-ITC analysis software (Version 1.1.01262) and corrected by subtracting the equivalent dilution heats of control titration. Integration of the area under each, along with deduction of the heat of dilution, yielded a thermogram of the molecular interaction between carbohydrates and PilACt or its mutants.

T1 sequence (Q59589 44-220): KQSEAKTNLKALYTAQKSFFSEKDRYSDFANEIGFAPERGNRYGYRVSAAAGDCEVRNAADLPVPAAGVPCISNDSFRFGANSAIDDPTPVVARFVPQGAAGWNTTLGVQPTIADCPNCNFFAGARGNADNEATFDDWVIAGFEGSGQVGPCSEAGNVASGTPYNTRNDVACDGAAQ
T6 sequence (Q59589 44-220): as above
T5 sequence (Q59589 44-220 W146A): as the sequence (Q59589 44-220) above, with W103A counted along it
T2 sequence (Q59589 44-220 Y69A): as the sequence (Q59589 44-220) above, with Y26A counted along it
T3 sequence (Q59589 44-220 F186A): as the sequence (Q59589 44-220) above, with F143A counted along it
T4 sequence (Q59589 44-220 W181A): as the sequence (Q59589 44-220) above, with W138A counted along it

Structure (SMILES) | zeta potential ([1]; pH 6, PBS) | zeta potential ([1]; pH 7.6, PBS) | Kd ([2]; pH 9) | Kd ([2]; steady-state fit, 25°C, PBS buffer, pH 7.6) | binding affinity relative to WT PilACt (SPR) [3] | piliation phenotype (surface pili) [4] | binding affinity relative to WT PilACt (SPR) [5] | pKa [6] | binding affinity relative to WT PilACt (SPR) [7] | binding to PilACt-W146A by SPR [8] | Kd [9] | stoichiometry n (ITC) ([9]; 25°C, PBS, pH 7.6) | binding to PilACt by SPR ([2]; tested concentrations 31.25–1,000 µM) | binding to PilACt by ITC ([9]; 25°C, PBS)
N[C@H]1C(O)O[C@H](CO)[C@@H](O)[C@@H]1O (stereo partly drawn) [GlcN, glucosamine] | +2.43 mV | 1.09 mV | 87 µM | 203 µM | indistinguishable from WT | hyperpiliation | indistinguishable from WT | ~ 7.58 | indistinguishable from WT | undetectable; also recorded: No binding | 300 µM | 1.47 | – | –
CC(=O)N[C@@H]1[C@@H](O)[C@H](O)[C@@H](CO)O[C@H]1O [GlcNAc, N-acetyl-glucosamine] | – | – | – | – | – | hyperpiliation | – | – | – | – | – | – | undetectable | undetectable
